Reference: article PMC4641600, “Novel Activities of Select NSAID R-Enantiomers against Rac1 and Cdc42 GTPases” (PLoS ONE, 2015)

Tests used:
Rac1 [1] = target: T1, Rac1 (Homo sapiens, UniProt P63000); assay: GLISA, OvCa433 cells; type: cell-based; conditions: 300 μM, 1 h pretreatment, 10 ng/ml EGF 2 min
T1 construct: endogenous in cells; host or cells: HeLa

[2] = typical oral dosing (S-Naproxen 500 mg; 6-MNA 750-20000 mg of nabumetone); ref Roche Investigator’s brochure, 9, 10, 17-19, 21, 23; cited from earlier work
Rac1 wt = Rac1 wt (Homo sapiens, UniProt P63000); assay: Dose response, BODIPY-GTP binding; conditions: 10 nM to 100 µM
Cdc42 wt = Cdc42 wt (Homo sapiens, UniProt P60953); assay: Dose response, BODIPY-GTP binding; conditions: 10 nM to 100 µM
Ras-related GTPases = assay: Confirmatory dose response assays on eight Ras-related GTPases; type: binding
Method in brief: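 GST-tagged GTPases on colour-coded glutathione beads in multiplex flow cytometry; compound pre-incubated 10 min, then BODIPY-FL-GTP (100 nM final) added and median bead FL1 fluorescence measured. Dose response 10 nM–100 µM; EC50 from curve fits (R2 > 0.9), with GST-GFP beads as non-specific control.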

[3] = test system: Rac1 and Tiam1 protein levels; assay: Immunoblot of protein levels; type: cell-based, human
Experimental: Cells were stimulated with EGF at a final concentration of 1 nM for 10 min. Cells were lysed in a RIPA buffer consisting of 50 mM Tris pH 7.4, 1% NP-40, 0.25% sodium deoxycholate, 150 mM NaCl, 1 mM EDTA, 1 mM PMSF, 1 mM sodium vanadate, 10 mM sodium fluoride, 1 μg/mL each of pepstatin, aprotinin and leupeptin, 10 mM sodium pyrophosphate and 10 mM beta-glycerophosphate.
N = 3. See also Figure D in S1 File for time dependent loss of Rac1 membrane localization. N = 3 (B) Quantification of image intensity using Image J of 3 representative confocal images as shown in panel (A) containing 20–30 cells/field normalized to actin and untreated controls. (C) Western blot analyses of lysates from cells treated with 300 μM compound as indicated for 24 h as compared to untreated controls. […] Blots were probed for Tiam1 (200 kDa), GAPDH (37 kDa), Rac1 (20 kDa), as a loading control. (D) Quantification of image intensity using Image J. Each marker was normalized to GAPDH and untreated controls. N = 3.

[4] = target: Rac1Q61L activating mutant (Homo sapiens, UniProt P63000, Q61L); assay: Dose response, BODIPY-GTP binding; conditions: 10 nM to 100 µM
Cdc42 = target: T2, Cdc42 (Mus musculus, UniProt P60766); assay: GLISA, Swiss 3T3 cells; type: cell-based; conditions: Swiss-3T3; at 300 µM
T2 construct: endogenous in cells; host or cells: Swiss 3T3

[5] = test system: Rac1 membrane localization; assay: Rac1 immunolocalization, OvCa433 cells; type: cell-based, human
[6] = test system: OvCa429 and OvCa433 cells; assay: Boyden chamber cell migration assay; type: cell-based, human; conditions: Homo sapiens; estimated from limited dose response data; read-out: IC50 migration Rac1/Cdc42 dependent (est)
Rac1 [7] = target: T1, Rac1; assay: G-trap flow cytometric effector binding assay, HeLa cells; type: cell-based

Cdc42 wt, sequence (P60953 whole entry): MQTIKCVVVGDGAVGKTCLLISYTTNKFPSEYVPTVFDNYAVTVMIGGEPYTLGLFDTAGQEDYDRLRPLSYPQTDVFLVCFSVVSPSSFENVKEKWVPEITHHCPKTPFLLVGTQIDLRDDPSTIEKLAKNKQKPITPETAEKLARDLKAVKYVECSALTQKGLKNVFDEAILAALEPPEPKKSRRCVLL
T2 sequence (P60766 whole entry): as the sequence (P60953 whole entry) above

SMILES: COc1ccc2cc(CC(=O)O)ccc2c1 [6-MNA, 6-methoxy-2-napthalene acetic acid]
- Rac1 activation by EGF (Rac1 [1]): no or limited effect
- Serum Cmax [2]: 41.2 µg/mL
- Rac1 wt EC50 (Rac1 wt): inactive
- Cdc42 wt EC50 (Cdc42 wt): inactive
- activity against the GTPases in confirmatory dose response assays (words) (Ras-related GTPases; 10 nM to 100 µM): lacked activity
- activity against the GTPases in confirmatory dose response assays (words) (Ras-related GTPases; 10 nM to 100 μM, listed as 6MNA): inactive
- effect (Ras-related GTPases; at 0.1 mM, against all GTPases): less than 20%
- total Rac1 or Tiam1 protein levels ([3]; 300 μM, 24 h, immunoblot): did not alter
- Rac protein expression ([3]; immunoblot analysis): No change
- Rac1 (act) EC50 [4]: inactive
- inhibition at 300 µM (Cdc42): 0%
- Rac1 membrane localization ([5]; 300 μM): no effect
- Rac PM Localiz. ([5]; immunofluorescence quantified using ImageJ): 98%
- IC50 [6]: > 300 µM
- fold lower potency than R-naproxen, Rac1 (Rac1 [7]): up to 6 fold
